Data as given in ChEMBL document CHEMBL4507319 (2021).

Tests used:
[1] = biological target: Serine/threonine-protein kinase B-raf (Homo sapiens) (UniProt P15056); conditions: Compound concentration 1000.0 nM
[2] = biological target: Protein-tyrosine kinase 6 (Homo sapiens) (UniProt Q13882); conditions: Compound concentration 1000.0 nM
[3] = biological target: Serine/threonine-protein kinase Nek7 (Homo sapiens) (UniProt Q8TDX7); conditions: Compound concentration 1000.0 nM
[4] = biological target: Cyclin-dependent kinase 11A (Homo sapiens) (UniProt Q9UQ88); conditions: Compound concentration 1000.0 nM
[5] = biological target: Phosphatidylinositol 4,5-bisphosphate 3-kinase catalytic subunit alpha isoform (Homo sapiens) (UniProt P42336); conditions: Compound concentration 1000.0 nM
[6] = biological target: Proto-oncogene tyrosine-protein kinase receptor Ret (Homo sapiens) (UniProt P07949); conditions: Compound concentration 1000.0 nM
[7] = biological target: Leukocyte tyrosine kinase receptor (Homo sapiens) (UniProt P29376); conditions: Compound concentration 1000.0 nM
Leukocyte tyrosine kinase receptor (Homo sapiens), sequence (P29376 whole entry): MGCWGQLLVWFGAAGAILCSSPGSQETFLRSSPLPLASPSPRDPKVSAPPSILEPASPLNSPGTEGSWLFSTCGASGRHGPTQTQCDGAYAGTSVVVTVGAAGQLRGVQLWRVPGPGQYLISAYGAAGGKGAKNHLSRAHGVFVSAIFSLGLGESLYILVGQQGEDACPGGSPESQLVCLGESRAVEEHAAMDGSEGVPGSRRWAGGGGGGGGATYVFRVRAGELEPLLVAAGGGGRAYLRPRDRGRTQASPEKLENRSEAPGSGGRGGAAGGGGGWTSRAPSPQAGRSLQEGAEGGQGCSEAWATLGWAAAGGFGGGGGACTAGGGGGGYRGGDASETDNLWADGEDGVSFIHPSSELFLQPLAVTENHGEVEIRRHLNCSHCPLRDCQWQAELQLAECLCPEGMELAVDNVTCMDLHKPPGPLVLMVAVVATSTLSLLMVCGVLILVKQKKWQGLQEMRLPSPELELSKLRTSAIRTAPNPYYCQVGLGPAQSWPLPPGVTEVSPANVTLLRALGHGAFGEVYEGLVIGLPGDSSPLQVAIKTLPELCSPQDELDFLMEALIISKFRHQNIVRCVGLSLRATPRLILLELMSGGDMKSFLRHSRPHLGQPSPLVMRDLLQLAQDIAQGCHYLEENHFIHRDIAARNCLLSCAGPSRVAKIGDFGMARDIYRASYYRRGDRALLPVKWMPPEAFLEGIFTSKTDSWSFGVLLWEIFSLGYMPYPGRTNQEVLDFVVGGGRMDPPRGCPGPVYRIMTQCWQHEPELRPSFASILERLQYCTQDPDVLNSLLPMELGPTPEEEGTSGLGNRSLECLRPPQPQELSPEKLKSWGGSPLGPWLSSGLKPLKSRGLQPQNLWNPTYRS

[8] = biological target: Epidermal growth factor receptor (Homo sapiens) (UniProt P00533); conditions: Compound concentration 1000.0 nM
[9] = biological target: Activin receptor type-2A (Homo sapiens) (UniProt P27037); conditions: Compound concentration 1000.0 nM
[10] = biological target: Beta-1 adrenergic receptor (Homo sapiens) (UniProt P08588); conditions: Compound concentration 10.0 uM
[11] = biological target: STE20-like serine/threonine-protein kinase (Homo sapiens) (UniProt Q9H2G2); conditions: Compound concentration 1000.0 nM
STE20-like serine/threonine-protein kinase (Homo sapiens), sequence (Q9H2G2 whole entry, looked up, canonical isoform): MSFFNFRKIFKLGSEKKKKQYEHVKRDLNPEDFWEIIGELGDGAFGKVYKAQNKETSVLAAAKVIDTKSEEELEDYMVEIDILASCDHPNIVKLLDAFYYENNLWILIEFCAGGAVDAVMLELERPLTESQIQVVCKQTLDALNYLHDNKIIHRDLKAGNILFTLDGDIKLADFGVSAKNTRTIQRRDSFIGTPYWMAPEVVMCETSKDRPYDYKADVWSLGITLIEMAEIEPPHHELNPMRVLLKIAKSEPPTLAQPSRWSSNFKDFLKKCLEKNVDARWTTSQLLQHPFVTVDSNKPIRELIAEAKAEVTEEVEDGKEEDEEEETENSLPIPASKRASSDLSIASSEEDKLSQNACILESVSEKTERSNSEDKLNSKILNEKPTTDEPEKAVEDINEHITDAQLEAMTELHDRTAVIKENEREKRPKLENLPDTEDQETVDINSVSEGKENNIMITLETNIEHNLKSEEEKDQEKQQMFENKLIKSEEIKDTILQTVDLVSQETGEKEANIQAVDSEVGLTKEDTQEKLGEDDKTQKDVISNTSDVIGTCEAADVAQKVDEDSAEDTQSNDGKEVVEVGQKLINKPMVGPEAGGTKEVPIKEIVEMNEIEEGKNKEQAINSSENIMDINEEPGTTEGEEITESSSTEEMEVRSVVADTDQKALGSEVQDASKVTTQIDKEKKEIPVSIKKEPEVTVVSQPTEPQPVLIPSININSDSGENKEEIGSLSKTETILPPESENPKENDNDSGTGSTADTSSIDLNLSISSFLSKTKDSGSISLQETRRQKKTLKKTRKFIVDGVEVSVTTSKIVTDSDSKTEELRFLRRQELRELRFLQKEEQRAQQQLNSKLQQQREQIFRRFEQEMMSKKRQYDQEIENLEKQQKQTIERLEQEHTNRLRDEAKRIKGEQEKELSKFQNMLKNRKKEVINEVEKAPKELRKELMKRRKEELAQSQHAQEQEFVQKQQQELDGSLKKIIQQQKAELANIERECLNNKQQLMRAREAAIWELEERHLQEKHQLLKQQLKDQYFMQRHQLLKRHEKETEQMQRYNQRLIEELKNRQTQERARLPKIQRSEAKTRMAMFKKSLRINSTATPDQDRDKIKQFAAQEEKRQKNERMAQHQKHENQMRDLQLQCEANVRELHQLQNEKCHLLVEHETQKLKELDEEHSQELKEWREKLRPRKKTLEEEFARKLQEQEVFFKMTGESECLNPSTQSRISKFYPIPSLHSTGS

[12] = biological target: Casein kinase I isoform gamma-3 (Homo sapiens) (UniProt Q9Y6M4); conditions: Compound concentration 1000.0 nM
[13] = test system: Receptor-type tyrosine-protein kinase FLT3 (Homo sapiens), P36888 [D835V]; conditions: Compound concentration 1000.0 nM
[14] = biological target: Maternal embryonic leucine zipper kinase (Homo sapiens) (UniProt Q14680); conditions: Compound concentration 1000.0 nM
Maternal embryonic leucine zipper kinase (Homo sapiens), sequence (Q14680 whole entry, looked up): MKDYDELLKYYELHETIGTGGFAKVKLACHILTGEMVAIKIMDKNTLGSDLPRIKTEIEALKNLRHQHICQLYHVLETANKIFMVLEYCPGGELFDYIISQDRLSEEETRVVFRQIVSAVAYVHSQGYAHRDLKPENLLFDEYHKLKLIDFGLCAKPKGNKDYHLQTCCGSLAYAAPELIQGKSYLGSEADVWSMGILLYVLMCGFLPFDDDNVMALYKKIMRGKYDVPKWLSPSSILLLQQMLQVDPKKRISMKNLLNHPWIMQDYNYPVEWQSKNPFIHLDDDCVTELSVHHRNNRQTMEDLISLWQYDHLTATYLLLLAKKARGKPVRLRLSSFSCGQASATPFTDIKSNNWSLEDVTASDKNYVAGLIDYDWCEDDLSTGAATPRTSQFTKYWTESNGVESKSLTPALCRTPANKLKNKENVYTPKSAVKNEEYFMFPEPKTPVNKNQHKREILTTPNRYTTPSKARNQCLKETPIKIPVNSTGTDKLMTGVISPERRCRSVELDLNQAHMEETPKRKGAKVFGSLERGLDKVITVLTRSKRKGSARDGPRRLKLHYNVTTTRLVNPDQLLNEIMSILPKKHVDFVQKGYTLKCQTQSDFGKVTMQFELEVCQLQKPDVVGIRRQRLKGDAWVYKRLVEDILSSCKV

[15] = biological target: 5-hydroxytryptamine receptor 6 (Homo sapiens) (UniProt P50406); conditions: Compound concentration 10.0 uM
5-hydroxytryptamine receptor 6 (Homo sapiens), sequence (P50406 whole entry): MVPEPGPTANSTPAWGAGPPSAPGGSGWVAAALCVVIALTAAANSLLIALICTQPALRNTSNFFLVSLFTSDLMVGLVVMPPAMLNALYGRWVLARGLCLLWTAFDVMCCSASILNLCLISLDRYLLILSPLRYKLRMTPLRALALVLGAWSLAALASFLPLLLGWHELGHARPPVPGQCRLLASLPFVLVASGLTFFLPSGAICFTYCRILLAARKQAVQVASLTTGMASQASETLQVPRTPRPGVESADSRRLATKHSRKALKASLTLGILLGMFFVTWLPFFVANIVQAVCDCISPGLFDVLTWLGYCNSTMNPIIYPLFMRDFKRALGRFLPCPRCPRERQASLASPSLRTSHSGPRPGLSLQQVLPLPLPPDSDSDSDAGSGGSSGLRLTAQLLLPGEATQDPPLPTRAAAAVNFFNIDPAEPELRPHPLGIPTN

[16] = biological target: T1, Serine/threonine-protein kinase Nek1 (Homo sapiens) (UniProt Q96PY6); conditions: Compound concentration 1000.0 nM
T1 sequence (whole entry): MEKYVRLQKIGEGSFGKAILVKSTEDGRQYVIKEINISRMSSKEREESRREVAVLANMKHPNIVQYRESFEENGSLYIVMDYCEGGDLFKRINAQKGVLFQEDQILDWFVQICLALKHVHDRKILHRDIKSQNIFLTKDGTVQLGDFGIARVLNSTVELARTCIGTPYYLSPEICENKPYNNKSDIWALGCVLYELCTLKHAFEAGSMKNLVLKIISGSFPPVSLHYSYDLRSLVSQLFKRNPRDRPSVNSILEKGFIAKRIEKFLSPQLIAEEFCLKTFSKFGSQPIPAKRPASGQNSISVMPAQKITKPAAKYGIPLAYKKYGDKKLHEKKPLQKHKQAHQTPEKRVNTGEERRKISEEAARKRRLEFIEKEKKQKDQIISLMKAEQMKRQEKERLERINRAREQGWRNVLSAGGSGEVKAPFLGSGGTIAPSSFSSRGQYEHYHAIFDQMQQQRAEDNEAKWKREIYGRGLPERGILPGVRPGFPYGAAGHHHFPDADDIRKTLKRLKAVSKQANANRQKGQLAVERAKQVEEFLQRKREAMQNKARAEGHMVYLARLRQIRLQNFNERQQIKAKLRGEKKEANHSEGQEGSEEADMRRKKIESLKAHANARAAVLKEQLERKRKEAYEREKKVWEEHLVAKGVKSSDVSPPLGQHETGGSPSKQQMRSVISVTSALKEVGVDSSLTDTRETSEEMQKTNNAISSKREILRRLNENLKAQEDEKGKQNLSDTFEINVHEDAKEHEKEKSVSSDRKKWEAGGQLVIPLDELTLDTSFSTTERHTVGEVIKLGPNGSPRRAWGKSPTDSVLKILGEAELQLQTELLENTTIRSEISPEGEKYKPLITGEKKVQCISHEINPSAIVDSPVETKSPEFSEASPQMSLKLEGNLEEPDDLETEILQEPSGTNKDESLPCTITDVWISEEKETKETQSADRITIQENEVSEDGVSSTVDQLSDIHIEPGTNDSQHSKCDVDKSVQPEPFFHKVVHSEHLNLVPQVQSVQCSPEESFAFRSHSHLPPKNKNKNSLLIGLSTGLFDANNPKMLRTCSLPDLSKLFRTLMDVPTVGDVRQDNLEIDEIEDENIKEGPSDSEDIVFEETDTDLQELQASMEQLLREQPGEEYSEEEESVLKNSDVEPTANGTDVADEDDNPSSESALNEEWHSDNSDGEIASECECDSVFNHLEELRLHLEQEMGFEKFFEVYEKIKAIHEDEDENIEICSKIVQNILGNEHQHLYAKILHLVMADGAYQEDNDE

[17] = test system: eIF-2-alpha kinase GCN2 (Homo sapiens), Q9P2K8 [S808G]; conditions: Compound concentration 1000.0 nM
[18] = biological target: T2, Testis-specific serine/threonine-protein kinase 1 (Homo sapiens) (UniProt Q9BXA7); conditions: Compound concentration 1000.0 nM
T2 sequence (whole entry): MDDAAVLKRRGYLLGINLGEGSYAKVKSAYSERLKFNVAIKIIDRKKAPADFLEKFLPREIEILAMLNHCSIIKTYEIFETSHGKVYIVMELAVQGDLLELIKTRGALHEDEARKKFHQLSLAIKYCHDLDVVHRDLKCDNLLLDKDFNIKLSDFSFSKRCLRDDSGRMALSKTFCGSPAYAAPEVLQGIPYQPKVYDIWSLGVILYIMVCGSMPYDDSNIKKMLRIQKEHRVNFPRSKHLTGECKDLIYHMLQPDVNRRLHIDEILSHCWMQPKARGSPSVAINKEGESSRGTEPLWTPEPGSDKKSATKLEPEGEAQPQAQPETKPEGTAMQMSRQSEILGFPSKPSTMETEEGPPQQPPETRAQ

[19] = biological target: Serine/threonine-protein kinase PAK 6 (Homo sapiens) (UniProt Q9NQU5); conditions: Compound concentration 1000.0 nM
Serine/threonine-protein kinase PAK 6 (Homo sapiens), sequence (Q9NQU5 whole entry, looked up): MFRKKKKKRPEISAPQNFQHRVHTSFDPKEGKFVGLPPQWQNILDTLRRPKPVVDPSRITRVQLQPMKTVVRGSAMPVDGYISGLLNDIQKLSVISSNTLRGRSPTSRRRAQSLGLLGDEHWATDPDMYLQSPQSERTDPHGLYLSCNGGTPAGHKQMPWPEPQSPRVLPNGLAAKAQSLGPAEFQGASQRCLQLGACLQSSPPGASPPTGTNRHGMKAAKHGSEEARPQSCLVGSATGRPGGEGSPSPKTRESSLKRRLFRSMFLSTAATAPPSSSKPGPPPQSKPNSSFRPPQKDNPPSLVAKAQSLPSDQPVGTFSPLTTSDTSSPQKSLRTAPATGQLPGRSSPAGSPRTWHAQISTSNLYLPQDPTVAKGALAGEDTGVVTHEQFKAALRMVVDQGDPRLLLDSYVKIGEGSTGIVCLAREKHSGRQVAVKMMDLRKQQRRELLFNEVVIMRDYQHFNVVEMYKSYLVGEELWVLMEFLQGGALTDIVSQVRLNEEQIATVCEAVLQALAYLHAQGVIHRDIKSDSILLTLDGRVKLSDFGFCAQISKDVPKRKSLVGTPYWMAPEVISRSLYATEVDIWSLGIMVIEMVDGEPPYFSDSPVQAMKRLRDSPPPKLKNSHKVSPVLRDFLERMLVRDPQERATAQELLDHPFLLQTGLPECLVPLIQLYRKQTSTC

Serine/threonine-protein kinase B-raf (Homo sapiens), sequence (P15056 whole entry): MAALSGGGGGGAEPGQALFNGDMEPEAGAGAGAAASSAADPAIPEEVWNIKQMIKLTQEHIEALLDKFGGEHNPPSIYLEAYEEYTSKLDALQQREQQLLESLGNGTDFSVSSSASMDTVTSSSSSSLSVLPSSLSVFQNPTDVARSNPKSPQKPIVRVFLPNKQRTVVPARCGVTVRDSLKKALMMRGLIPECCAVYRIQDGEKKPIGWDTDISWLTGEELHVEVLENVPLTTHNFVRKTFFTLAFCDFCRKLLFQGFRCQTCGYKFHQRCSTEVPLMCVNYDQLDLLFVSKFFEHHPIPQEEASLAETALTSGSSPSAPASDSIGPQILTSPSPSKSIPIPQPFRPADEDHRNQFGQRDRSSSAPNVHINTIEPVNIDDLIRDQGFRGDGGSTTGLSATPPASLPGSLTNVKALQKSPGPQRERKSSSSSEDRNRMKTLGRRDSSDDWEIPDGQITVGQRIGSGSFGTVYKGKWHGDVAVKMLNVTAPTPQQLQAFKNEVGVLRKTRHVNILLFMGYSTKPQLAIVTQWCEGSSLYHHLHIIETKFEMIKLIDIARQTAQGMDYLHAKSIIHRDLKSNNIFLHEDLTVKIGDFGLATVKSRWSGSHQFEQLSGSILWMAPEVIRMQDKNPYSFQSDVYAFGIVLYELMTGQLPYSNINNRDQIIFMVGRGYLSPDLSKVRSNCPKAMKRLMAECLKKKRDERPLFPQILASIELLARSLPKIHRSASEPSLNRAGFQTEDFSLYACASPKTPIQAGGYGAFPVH
Serine/threonine-protein kinase Nek7 (Homo sapiens), sequence (Q8TDX7 whole entry, looked up): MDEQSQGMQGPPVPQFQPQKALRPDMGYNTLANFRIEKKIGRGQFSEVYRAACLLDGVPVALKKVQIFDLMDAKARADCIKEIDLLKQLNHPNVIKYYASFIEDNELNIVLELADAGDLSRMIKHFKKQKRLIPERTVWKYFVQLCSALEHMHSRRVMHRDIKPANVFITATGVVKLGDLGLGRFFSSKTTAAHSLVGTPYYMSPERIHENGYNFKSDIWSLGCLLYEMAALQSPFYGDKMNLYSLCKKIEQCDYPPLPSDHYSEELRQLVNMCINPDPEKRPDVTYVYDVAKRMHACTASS

CCc1ccccc1C(=O)Nc1n[nH]c2c(C)c(F)c(C3C(C#N)=C(C)N(C)C(C)=C3C#N)cc12 [BAY-3827]
inactive: residual activity [1] 78% | residual activity [2] 100% | residual activity [3] 83% | residual activity [4] 86% | residual activity [5] 100% | residual activity [6] 65% | residual activity [7] 94% | residual activity [8] 85% | residual activity [9] 100% | inhibition [10] 1.59% | residual activity [11] 100% | residual activity [12] 100% | inhibition [15] 9.23% | residual activity [16] 100% | residual activity [18] 95% | residual activity [19] 93%
active: residual activity [13] 3.2% | residual activity [14] 43% | residual activity [17] 43%

CC1=C(C#N)C(c2ccc3c(c2)c(NC(=O)c2ccccc2C)nn3C)C(C#N)=C(C)N1 [BAY-974]
active: residual activity [1] 47%
inactive: residual activity [2] 100% | residual activity [3] 96% | residual activity [4] 100% | residual activity [5] 100% | residual activity [6] 97% | residual activity [7] 70% | residual activity [8] 84% | residual activity [9] 97% | inhibition [10] -7.79% | residual activity [11] 88% | residual activity [12] 100% | residual activity [13] 90% | residual activity [14] 81% | inhibition [15] 2.21% | residual activity [16] 100% | residual activity [17] 61% | residual activity [18] 100% | residual activity [19] 100%
